Assay results published in US20100264359A1, “BIOCIDAL MIXTURES” (LANXESS DEUTSCHLAND GMBH, priority 2007, published 2010).

What was measured:
Bacteria = experiment: Preservation of a cooling lubricant emulsion, repeated weekly contamination with bacteria mixture; format: cell-based; details: maximum of 10 weeks; for Number of weeks in which the growth of microorganisms lay beneath the limiting values (bacteria <10^6 CFU/g): 0.05% (=500 ppm) BIT in cooling lubricant emulsion; for Number of weeks in which the growth of microorganisms remained below the limiting values (bacteria <10^6 CFU/g): 0.18% (=1800 ppm) OPP in cooling lubricant emulsion
Description: (§1) For this purpose, preserved samples of the cooling lubricant emulsion were repeatedly exposed in a weekly cycle to microbiological contamination with the following microorganisms:
(§2) The bacteria mixture was added in each case separately from the yeasts/molds. The maximum experimental time was 10 weeks (=10 contaminations/inoculation cycles), provided that the weekly cell count determination (in each case 7 days after the contamination) was kept within the following limiting values:
(§3) bacteria <10^6 CFU/g yeasts/molds <10^3-4 CFU/g
(§4) The experiment was terminated when said values were exceeded twice in succession.

Molds = experiment: Preservation of a cooling lubricant emulsion, repeated weekly contamination with molds; format: cell-based, Acremonium strictum, Fusarium solani, Geotrichum candidum; details: maximum of 10 weeks; for Number of weeks in which the growth of microorganisms lay beneath the limiting values (molds <10^3-4 CFU/g): 0.05% (=500 ppm) BIT in cooling lubricant emulsion; for Number of weeks in which the growth of microorganisms remained below the limiting values (molds <10^3-4 CFU/g): 0.18% (=1800 ppm) OPP in cooling lubricant emulsion
Description: as §1, §2, §3, §4

Yeasts = experiment: Preservation of a cooling lubricant emulsion, repeated weekly contamination with yeasts; format: cell-based, Rhodotorula rubra; details: maximum of 10 weeks; for Number of weeks in which the growth of microorganisms lay beneath the limiting values (yeasts <10^3-4 CFU/g): 0.05% (=500 ppm) BIT in cooling lubricant emulsion; for Number of weeks in which the growth of microorganisms remained below the limiting values (yeasts <10^3-4 CFU/g): 0.18% (=1800 ppm) OPP in cooling lubricant emulsion
Description: as §1, §2, §3, §4

## O=c1[nH]sc2ccccc12 [BIT, benzisothiazolinone]
Bacteria
  Number of weeks in which the growth of microorganisms lay beneath the limiting values (bacteria <10^6 CFU/g): 1 week weeks
Bacteria; listed as benzisothiazolinone
  Number of weeks in which the growth of microorganisms lay beneath the limiting values (bacteria <10^6 CFU/g): 1 week (of a maximum of 10 weeks)
Molds
  Number of weeks in which the growth of microorganisms lay beneath the limiting values (molds <10^3-4 CFU/g): 1 week weeks
Molds; listed as benzisothiazolinone
  Number of weeks in which the growth of microorganisms lay beneath the limiting values (molds <10^3-4 CFU/g): 1 week (of a maximum of 10 weeks)
Yeasts
  Number of weeks in which the growth of microorganisms lay beneath the limiting values (yeasts <10^3-4 CFU/g): 7 weeks
Yeasts; listed as benzisothiazolinone
  Number of weeks in which the growth of microorganisms lay beneath the limiting values (yeasts <10^3-4 CFU/g): 7 weeks (of a maximum of 10 weeks)

## Oc1ccccc1-c1ccccc1 [OPP, o-phenylphenol]
Bacteria
  Number of weeks in which the growth of microorganisms remained below the limiting values (bacteria <10^6 CFU/g): 2 weeks
Bacteria; listed as o-phenylphenol
  Number of weeks in which the growth of microorganisms remained below the limiting values (bacteria <10^6 CFU/g): 2 weeks (of a maximum of 10 weeks)
Molds
  Number of weeks in which the growth of microorganisms remained below the limiting values (molds <10^3-4 CFU/g): 10 weeks
Molds; listed as o-phenylphenol
  Number of weeks in which the growth of microorganisms remained below the limiting values (molds <10^3-4 CFU/g): 10 weeks (of a maximum of 10 weeks)
Yeasts
  Number of weeks in which the growth of microorganisms remained below the limiting values (yeasts <10^3-4 CFU/g): 10 weeks
Yeasts; listed as o-phenylphenol
  Number of weeks in which the growth of microorganisms remained below the limiting values (yeasts <10^3-4 CFU/g): 10 weeks (of a maximum of 10 weeks)
